Source: patent publication US4912116A, “Propiophenone derivatives for treatment of pollakiuria (frequency urination)” (Hokuriku Pharmaceutical Co., Ltd., priority 1986, dated 1990)
Like-named read-outs stand apart in the source and are kept apart here.

Tests used:
[1] = system: cystometrogram (time to micturition); assay: Effects on the cystometrogram (Dog); type: in vivo, Mongrel adult dogs; conditions: i.v., dogs, mean ± S.E., saline 6.0 ± 13.8
Experimental: (§1) statistical analysis: Each data of Experiment 1-6 represents the mean±S.E. statistical analysis of the data was performed using student's t-test.
Mongrel adult dogs weighing about 10 kg were anesthetized with thiopental (20 mg/kg, i.v.) and immobilized with gallamine (2 mg/kg, i.v.), and fixed on their back.
In the experiment, infusion of pentobarbital (3 mg/kg/hr, i.v.) and gallamine (3 mg/kg i.v.) were continuted, and artifical respiration was performed (20 times/min, 20 ml air/kg).
After midline incision of the abdomen, the ureters were ligated and polyethylene tubes were inserted into the kidney side and the urinary bladder side. Urine was led out of the body from the kidney side, and warm saline was infused using a continuous infusion pump from the urinary bladder side.
Then, a catheter was inserted into the bladder dome and connected to a pressure transducer. Intravesical pressure was recorded on a recorder.
The infusion rate of saline was changed (6-35 ml/min) so as to induce the time to micturition from the saline infusion (time to micturition) at about five minutes.
The drug was administered (through a cannula inserted into the right femoral vein) at the second minute before the last time to micturition, and the delayed time of micturition was evaluated.

[2] = system: cystometrogram (time to micturition); assay: Effects on the cystometrogram (Cat); type: in vivo, Mongrel adult cats; conditions: cats; for ED (2 min delay of micturition): Felis catus, read-out: ED2 (dose which delayed time to micturition by 2 min.)
Experimental: as §1
Mongrel adult cats weighing about 3 kg (in case of intraduodenal administration, fasted 24 hours) were anesthetized with urethane (500 mg/kg, i.p.) and alpha-chloralose (50 mg/kg, i.p.) and fixed on their back.
After midline incision of the abdomen, the ureters were ligated and polyethylene tubes were inserted into the kidney side and urinary bladder side, urine was led out of the body from the kidney side, and warm saline was infused using a continuous infusion pump from the urinary bladder side.
Then, a catheter was inserted into the bladder dome and connected to a pressure transducer Intravesical pressure was recorded on a recorder.
The infusion rate of saline was changed (0.7-6.6 ml/min) so as to induce the time to micturition from saline infusion at about five minutes.
Each of delayed time of micturition was evaluated. In case of intravenous administration, the drug was administered through a cannula inserted into the right femoral vein at 30 seconds before saline infusion.
In case of intraduodenal administration, the drug was administrated through a tube inserted into the duodenum by way of mouth at the time of saline infusion, and the time to micturition was measured at 15 min. intervals until 90 min.

[3] = system: cystometrogram (time to micturition); assay: Effects on the cystometrogram (in anesthetized rat); type: in vivo, Male Wister rats; conditions: i.v., 6 rats, mean ± S.E., saline -6.0 ± 49.8
Experimental: as §1
Male Wister rats weighing about 300 g were anesthetized with urethane (500 mg/kg, i.p.) and α-chloralose (50 mg/kg, i.p.) and fixed on their back.
Then, through a midline incision of the abdomen, the urinary bladder was exposed, provided with a small incision, a polyethylene tube was inserted into the bladder dome, and ureters were cut.
Then, through the polyethylene tube, saline was infused using a continuous infusion pump. On the other hand, the polyethylene tube was connected to a pressure transducer. Intravesical pressure was recorded on a recorder.
The drug was administrated through a cannula inserted into the left jugular vein at 30 sec before saline infusion. Effect of the drug was represented by delayed time to micturition.

[4] = system: micturition reflex (rhythmic bladder contractions); assay: Inhibition of micturition reflex (rhythmic bladder contractions) in unanesthetized, gallamine-immobilized rats; type: in vivo, Male Wister rats; conditions: for Disappearance time (of bladder contractions): i.v., 4 rats, mean ± S.E., saline 9.0 ± 1.8; for Inhibition Rate: i.d., 15 min after administration, 0.5% CMC 11.9 ± 7.9
Experimental: as §1
Male Wister rats weighing about 300 g (in case of intraduodenal administration, fasted more than 15 hours) were anesthetized with ether and immobilized with gallamine (5 mg/kg, i.v.) and fixed on their back. As soon as that procedure was finished anesthesia was discontinuted.
In the experiment, infusion of gallamine, 13 mg/kg/hr, i.v. (in case of intraduodenum administration, 10 mg/kg/hr, i.v.) was continuted, and artificial respiration was performed (90 times/min, 3 ml air/time).
Then, through a midline incision of the abdomen, the urinary bladder was exposed; a small incision provided therein, and a balloon (capacity about 1 ml) was inserted into the bladder dome.
(§2) The balloon was connected to a pressure transducer and variations of inside pressure were recorded on a recorder.
Micturition reflex was elicited by raising the balloon pressure 10-20 cm H2 O.
In case of intravenous administration, the drug was administrated through a cannula inserted into the left jugular vein, and in case of intraduodenal administration the drug was administrated through a cannula inserted into the duodenum from outside the stomach.
In case of intravenous administration, the effect of the drug was represented by the disappearance time of bladder contractions caused by micturition reflex.
In case of intraduodenal administration, the sum total of amplitude of bladder contractions caused by micturition reflex was calculated during each five minutes at 5 min before and 15, 30, 45, 60, 75, 90, 105 and 120 min after the administration.
Then, inhibition rate was calculated by the sum total of amplitude of bladder contractions at each point compared with that before the administration.

[5] = system: micturition reflex (rhythmic bladder contractions); assay: Inhibition of micturition reflex (rhythmic bladder contractions) in anesthetized rats; type: in vivo, male wister rats; conditions: for Disappearance time (of bladder contractions): i.v., 3 rats, mean ± S.E.
Experimental: as §1
According to the method described by Morikawa et al. (Folia phamacol. japon.: 88,355 (1986), male wister rats weighing about 300 g (in case of intraduodenal administration, fasted 18-20 hours) were anesthetized with urethane (500 mg/kg, i.p.) and alpha-chloralose (50 mg/kg, i.p.), and fixed on their back.
Then, through a midline incision of the abdomen, the urinary bladder was exposed, provided with a small incision, and a balloon (capacity about 1 ml) was inserted into the bladder dome.
as §2
Micturition reflex was elicited by elevating balloon pressure 10-20 cm H2 O.
In case of intravenous administration, the drug was administrated through a cannula inserted into the left jugular vein and, in case of intraduodenum administration, the drug was administrated through a cannula into the duodenum from outside the stomach.
In case of intravenous administration, the drug was evaluated by the dissappearance time of bladder contractions caused by micturition reflex.
In case of intraduodenal administration, the sum total of amplitude of bladder contractions caused by the micturition reflex was calculated during each five minutes at 5 min. before and 15, 30, 45, and 60 min. after the administration.
Then, the maximum inhibition rate was determined from one of the above judgment times compared with that of before the administration, and the dose which inhibited 50 percent of the sum total of amplitude of bladder contractions during five minutes (ED 50 value), was calculated from the graph.

## CCc1ccc(C(=O)C(C)CN2CCCC2)cc1 (centres unmarked) [Compound 1]
[1]; 1 mg/kg
  Delayed time of micturition: 13.2 ± 21.0 s
[1]; 3 mg/kg, * p < 0.05 vs last time to micturition
  Delayed time of micturition: 50.4 ± 15.0 s
[2]; 1 mg/kg, i.v., mean ± S.E., saline 6.6 ± 10.2
  Delayed time to micturition: -19.2 ± 6.6 s
[2]; 4 mg/kg, i.v., mean ± S.E., saline 6.6 ± 10.2
  Delayed time to micturition: 70.8 ± 27.0 s
[2]; 8 mg/kg, i.v., mean ± S.E., saline 6.6 ± 10.2
  Delayed time to micturition: 170.4 ± 48.0 s
[2]; 12.5 mg/kg, i.d., after 30 min., water 22.2 ± 16.2
  Delayed time to micturition: 49.8 ± 8.4 s
[2]; 25.0 mg/kg, i.d., after 30 min., ** p < 0.01 vs control, water 22.2 ± 16.2
  Delayed time to micturition: 105.0 ± 10.8 s
[2]; 50.0 mg/kg, i.d., after 30 min., water 22.2 ± 16.2
  Delayed time to micturition: 128.4 ± 37.8 s
[2]; intraduodenal, 0.5 h, i.d., after 30 min.
  ED (2 min delay of micturition): 39 mg/kg
[2]; iv, 2 min, i.v.
  ED (2 min delay of micturition): 5.6 mg/kg
[3]; 1 mg/kg
  Delayed time of micturition: 52.8 ± 50.4 s
[3]; 4 mg/kg
  Delayed time of micturition: 102.0 ± 32.4 s
[3]; 8 mg/kg, ** P < 0.01 vs control
  Delayed time of micturition: 200.4 ± 60.6 s
[4]; 4 mg/kg
  Disappearance time (of bladder contractions): 52.8 ± 23.4 min
[4]; 8 mg/kg, * p < 0.05 vs control
  Disappearance time (of bladder contractions): 249.0 ± 45.0 min
[4]; 12.5 mg/kg, * p < 0.05
  Inhibition Rate: 36.1 ± 4.4%
[4]; 25 mg/kg, ** p < 0.01
  Inhibition Rate: 53.8 ± 6.9%
[4]; 50 mg/kg, ** p < 0.01
  Inhibition Rate: 87.9 ± 5.1%
[5]; 1 mg/kg
  Disappearance time (of bladder contractions): 1.1 ± 1.1 min
[5]; 2 mg/kg
  Disappearance time (of bladder contractions): 2.3 ± 0.5 min
[5]; 4 mg/kg
  Disappearance time (of bladder contractions): 7.1 ± 2.8 min
[5]; Rattus norvegicus, iv, read-out: ED3 (dose at which rhythmic bladder contractions disappeared in three (3) minutes)
  ED (3 min disappearance of contractions): 2.2 mg/kg
[5]; Rattus norvegicus, intraduodenal administration, read-out: ED50 (dose which inhibited 50 percent of the sum total of amplitude of bladder contractions during five minutes)
  ED50: 14.3 mg/kg
